This note sets out measurements from PubChem BioAssay AID248 (DTP/NCI, 2004).

Where “and” joins values, the source holds several entries; their conditions need not be identical. Equal values may be shown once. Toxic doses and inconclusive results are not listed.

This experiment has as its system L1210 leukemia ip in BDF1 mice, survival T/C. The experiment can be described thus: NCI In Vivo Anticancer Drug Screen. Data for tumor model L1210 Leukemia (intraperitoneal) in B6D2F1 (BDF1) mice. Conditions: endpoint: mean survival time, higher = longer survival. An outline of the steps:
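Ratio derived from survival: compound-dosed mice over vehicle-dosed mice, all bearing a transplantable tumor.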

[1] abbreviates: dose: 6.25 mg/kg/injection, schedule: Q01DX009 (ip), vehicle: saline with Tween-80.
[2] abbreviates: dose: 12.5 mg/kg/injection, schedule: Q01DX009 (ip), vehicle: saline with Tween-80.
[3] abbreviates: dose: 25.0 mg/kg/injection, schedule: Q01DX009 (ip), vehicle: saline with Tween-80.
Where [4] appears, read: dose: 100.0 mg/kg/injection, schedule: Q04DX003 (ip), vehicle: saline with Tween-80.
Where [5] appears, read: dose: 100.0 mg/kg/injection, schedule: Q01DX001 (ip), vehicle: saline.
Setting [6] is: dose: 100.0 mg/kg/injection, schedule: Q04DX003 (ip), vehicle: saline.
Setting [7] is: dose: 200.0 mg/kg/injection, schedule: Q01DX001 (ip), vehicle: saline.
[8] abbreviates: dose: 200.0 mg/kg/injection, schedule: Q01DX009 (ip), vehicle: saline with Tween-80.
Where [9] appears, read: dose: 200.0 mg/kg/injection, schedule: Q04DX003 (ip), vehicle: saline.
[10] abbreviates: dose: 400.0 mg/kg/injection, schedule: Q04DX003 (ip), vehicle: saline.
Setting [11] is: dose: 50.0 mg/kg/injection, schedule: Q04DX003 (ip), vehicle: saline.
Setting [12] is: dose: 100.0 mg/kg/injection, schedule: Q01DX001 (ip), vehicle: Klucel (hydroxypropylcellulose) (HPC).
The mark [13] stands for this setting: dose: 200.0 mg/kg/injection, schedule: Q04DX003 (ip), vehicle: saline with Tween-80.
The mark [14] stands for this setting: dose: 400.0 mg/kg/injection, schedule: Q04DX003 (ip), vehicle: saline with Tween-80.
[15] abbreviates: dose: 100.0 mg/kg/injection, schedule: Q04DX003 (ip), vehicle: Klucel (hydroxypropylcellulose) (HPC).
The mark [16] stands for this setting: dose: 200.0 mg/kg/injection, schedule: Q04DX003 (ip), vehicle: Klucel (hydroxypropylcellulose) (HPC).
Where [17] appears, read: dose: 400.0 mg/kg/injection, schedule: Q04DX003 (ip), vehicle: Klucel (hydroxypropylcellulose) (HPC).
Where [18] appears, read: dose: 75.0 mg/kg/injection, schedule: Q01DX001 (ip), vehicle: saline.
Where [19] appears, read: dose: 150.0 mg/kg/injection, schedule: Q01DX001 (ip), vehicle: saline.
The mark [20] stands for this setting: dose: 50.0 mg/kg/injection, schedule: Q01DX009 (ip), vehicle: saline with Tween-80.
The mark [21] stands for this setting: dose: 100.0 mg/kg/injection, schedule: Q01DX009 (ip), vehicle: saline with Tween-80.

For the compound `CSCC1OC(n2cnc3c(N)nc(Cl)nc32)C(O)C1O` (configuration not stated), the T/C is 97 % of control (dose: 3.12 mg/kg/injection, schedule: Q01DX009 (ip), vehicle: saline with Tween-80); 102 % of control under setting [1]; 107 % of control under setting [2]; 91 % of control under setting [3]; 97 % of control (dose: 25.0 mg/kg/injection, schedule: Q04DX003 (ip), vehicle: saline with Tween-80); 101 % of control (dose: 50.0 mg/kg/injection, schedule: Q04DX003 (ip), vehicle: saline with Tween-80). Further, the T/C (dose: 100.0 mg/kg/injection, schedule: Q01DX001 (ip), vehicle: saline with Tween-80) was 95 % of control and the T/C under setting [4] is 108 % of control.
Regarding `CC(=O)Nc1ccc2c(c1)C(N)c1ccccc1-2` (configuration not stated), the T/C by setting is: (dose: 88.0 mg/kg/injection, schedule: Q01DX Z (ip), vehicle: carboxymethylcellulose (CMC)) 103 % of control; (dose: 88.0 mg/kg/injection, schedule: Q01DX Z (ip), vehicle: saline) 94 % of control; under setting [5], 113 % of control; (dose: 100.0 mg/kg/injection, schedule: Q01DX009 (ip), vehicle: saline) 105 % of control; under setting [6], 98 % of control; (dose: 132.0 mg/kg/injection, schedule: Q01DX009 (ip), vehicle: saline with Tween-80) 111 % of control. The T/C (dose: 132.0 mg/kg/injection, schedule: Q01DX009 (ip), vehicle: saline) is 99 % of control; the T/C (dose: 133.0 mg/kg/injection, schedule: Q01DX Z (ip), vehicle: carboxymethylcellulose (CMC)) is 92 % of control; the T/C (dose: 133.0 mg/kg/injection, schedule: Q01DX Z (ip), vehicle: saline) was 98 % of control; the T/C under setting [7] is 113 % of control; the T/C under setting [8] is 118 % of control; the T/C (dose: 200.0 mg/kg/injection, schedule: Q01DX009 (ip), vehicle: saline) is 108 % of control. The T/C reads like this: (dose: 200.0 mg/kg/injection, schedule: Q01DX Z (ip), vehicle: carboxymethylcellulose (CMC)) 105 % of control; under setting [9], 103 % of control; (dose: 300.0 mg/kg/injection, schedule: Q01DX009 (ip), vehicle: saline) 100 % of control; (dose: 400.0 mg/kg/injection, schedule: Q01DX001 (ip), vehicle: saline) 109 % of control; under setting [10], 122 % of control.
For `CC1=C2CCC(C)CC23C2C(=O)OC(=O)C2C1C1C(=O)OC(=O)C13` (configuration not stated), the T/C was 100 % of control (dose: 25.0 mg/kg/injection, schedule: Q01DX009 (ip), vehicle: saline); 101 % of control under setting [11]; 93 % of control under setting [5]; 90 % of control under setting [6]; 108 % of control under setting [7].
Turning to `CCCCC(NC(=O)CN)C(=O)O` (configuration not stated), the T/C is, setting by setting: (dose: 25.0 mg/kg/injection, schedule: Q01DX001 (ip), vehicle: Klucel (hydroxypropylcellulose) (HPC)) 105 % of control; (dose: 50.0 mg/kg/injection, schedule: Q01DX001 (ip), vehicle: Klucel (hydroxypropylcellulose) (HPC)) 103 % of control; under setting [12], 100 % of control.
In the case of `O=C1NOCC1NCc1c(O)ccc2ccccc12` (configuration not stated), the T/C reads like this: under setting [4], 87 % of control; under setting [13], 100 % of control; under setting [14], 97 % of control.
In the case of `O=C1c2ccccc2C(=O)N1c1cc([N+](=O)[O-])cc([N+](=O)[O-])c1O`, the T/C was 98 % of control under setting [12]; 95 % of control (dose: 200.0 mg/kg/injection, schedule: Q01DX001 (ip), vehicle: Klucel (hydroxypropylcellulose) (HPC)); 88 % of control (dose: 400.0 mg/kg/injection, schedule: Q01DX001 (ip), vehicle: Klucel (hydroxypropylcellulose) (HPC)).
`COc1ccc(C2C=CC(c3ccccc3)C(c3ccccc3)C2[N+](=O)[O-])cc1OC` (configuration not stated): the T/C is 96 % of control under setting [4], 94 % of control under setting [13] and 104 % of control under setting [14].
`O=C1c2ccccc2C(=O)N1CCOc1ccc([N+](=O)[O-])cc1`: the T/C is 92 % of control (dose: 100.0 mg/kg/injection, schedule: Q01DX001 (ip), vehicle: gum acacia); 99 % of control (dose: 200.0 mg/kg/injection, schedule: Q01DX001 (ip), vehicle: gum acacia); 92 % of control (dose: 400.0 mg/kg/injection, schedule: Q01DX001 (ip), vehicle: gum acacia).
As for `COc1cccc(NC(=O)NCCCl)c1OC`, the T/C was 107 % of control under setting [15], 96 % of control under setting [16] and 102 % of control under setting [17].
As for `CCC(=C\c1sc2ccc3ccccc3c2[n+]1CC)/C=C1/Sc2ccc3ccccc3c2N1CC`, the T/C (dose: 2.0 mg/kg/injection, schedule: Q01DX001 (ip), vehicle: other) was 117 % of control; the T/C (dose: 4.0 mg/kg/injection, schedule: Q01DX001 (ip), vehicle: other) is 95 % of control; the T/C (dose: 8.0 mg/kg/injection, schedule: Q01DX001 (ip), vehicle: other) is 88 % of control.
As for `O=C(O)CCC(=O)CC[N+](=O)[O-]`, the T/C under setting [18] is 94 % of control and the T/C under setting [19] was 97 % of control.
As to `CN1CCC(CN2c3ccccc3Sc3ccccc32)CC1`, the T/C under setting [1] was 93 % of control; the T/C under setting [2] is 93 % of control; the T/C (dose: 15.0 mg/kg/injection, schedule: Q01DX Z (ip), vehicle: methylcellulose (MC)) was 104 % of control; the T/C under setting [3] was 93 % of control; the T/C (dose: 25.0 mg/kg/injection, schedule: Q04DX003 (ip), vehicle: saline) was 108 % of control; the T/C (dose: 30.0 mg/kg/injection, schedule: Q01DX Z (ip), vehicle: methylcellulose (MC)) was 108 % of control. Further, the T/C runs as follows: (dose: 45.0 mg/kg/injection, schedule: Q01DX Z (ip), vehicle: methylcellulose (MC)) 96 % of control; under setting [11], 100 % of control and 109 % of control; under setting [5], 103 % of control; under setting [6], 97 % of control; under setting [7], 102 % of control; under setting [9], 106 % of control and 108 % of control. Also, the T/C under setting [10] is 97 % of control.
Turning to `C/C=C/CC1(CCC)C(=O)NC(=O)NC1=O`, the T/C is 100 % of control under setting [18]; 98 % of control under setting [19]; 104 % of control (dose: 300.0 mg/kg/injection, schedule: Q01DX001 (ip), vehicle: saline).
As to `CCO/C(=C\C(=O)c1ccccc1)c1ccccc1`, the T/C by setting is: (dose: 50.0 mg/kg/injection, schedule: Q01DX009 (ip), vehicle: saline sonified) 92 % of control; (dose: 100.0 mg/kg/injection, schedule: Q01DX009 (ip), vehicle: saline sonified) 95 % of control; (dose: 200.0 mg/kg/injection, schedule: Q01DX009 (ip), vehicle: saline sonified) 94 % of control.
Regarding `[O]=[Sn]([c]1ccccc1)[c]1ccccc1`, the T/C (dose: 64.0 mg/kg/injection, schedule: Q04DX002 (ip), vehicle: saline with Tween-80) was 313 % of control.
Consider `O=C1C(=O)c2ccccc2C(O)=C1C(CCc1ccccc1)C1=C(O)c2ccccc2C(=O)C1=O`, for which the T/C (dose: 75.0 mg/kg/injection, schedule: Q01DX001 (ip), vehicle: carboxymethylcellulose (CMC)) was 106 % of control; the T/C under setting [18] was 96 % of control; the T/C under setting [19] is 94 % of control.
With `COc1coc(CO)cc1=O`, the T/C was 94 % of control under setting [20] and 97 % of control under setting [21].
`Nc1ccc(/C=C/c2ccc(N)cc2)cc1`: the T/C runs as follows: under setting [15], 97 % of control; under setting [16], 94 % of control; under setting [17], 94 % of control.
On to `CC(C)CSC(C)C`, for which the T/C runs as follows: under setting [20], 98 % of control; under setting [21], 96 % of control; under setting [4], 107 % of control; under setting [8], 91 % of control; under setting [13], 105 % of control; under setting [14], 87 % of control.
